This passage reports vasoconstrictor action, tissue injury and preeclampsia results from US20160299130A1, “Telocinobufagin (TCINO) in the Diagnosis and Pathogenesis of Preeclampsia, Traumatic Brain Injury and Acute Respiratory Distress Syndrome” (priority 2015, published 2016).

The structures appear in SMILES notation.

The conditions of assay [1]: in vitro; cited from earlier work.
For assay [2], the system named is rodent brain contusion model. As to the kind of experiment: rodent brain contusion model. It counts as in vivo. Particulars: given 1 hour after the insult. The text has this: (§1) MBG is elevated in preeclampsia and traumatic brain injury. It has been shown that the administration of the antagonist of MBG, resibufagenin (RBG) is therapeutically effective. […] RBG antagonizes MBG activity and may be an effective treatment for hypertension, ARDS, traumatic brain injury, and preeclampsia.

Assay [3] has as its system animal models of preeclampsia. Description: preeclampsia in animal models. Format: in vivo.
Excerpt: as §1

As for `C[C@]12CC[C@H](O)C[C@@]1(O)CC[C@@H]1[C@@H]2CC[C@]2(C)[C@@H](c3ccc(=O)oc3)C[C@H]3O[C@]132` [MBG, marinobufagenin], the vasoconstrictor action entry in assay [1] is given as “acts in vitro as a vasoconstrictor”.
Take `C[C@]12CC[C@H](O)C[C@H]1CC[C@@H]1[C@@H]2CC[C@]2(C)[C@@H](c3ccc(=O)oc3)C[C@H]3O[C@]132` [RBG, resibufagenin]: in assay [2], the tissue injury result is “amelioration of tissue injury”. Besides, the preeclampsia entry in assay [3] was “prevents preeclampsia”.
